{
  "source": "patent US10898539B2",
  "about": "“Process for the synchronization of ovulation for timed breeding without heat detection” (priority 2003, dated 2021)",
  "assay_type_in_all_cases": "in vivo, swine",
  "key": {"postpartum sows [1]": {"tested_on": "postpartum sows", "assay": "Litter size after deslorelin treatment in postpartum sows at three farm sites (Example 4)", "source_text": "(§1) Postpartum sows were randomly distributed into three different groups comprised of Controls, Treatment 1, and Treatment 2, with the exception of Site 3, which was divided into two groups, Control and Treatment 2. Control sows were detected for estrus following weaning, and bred following the normal standard operating procedures for the farms on which they resided. Treatment 1 sows were detected for estrus following weaning, and received a 50 mcg dose of deslorelin in the morning when standing and were bred by AI 4 hours later and again at 24+/−2 hours later. Treatment 2 sows received a 50 mcg dose of deslorelin in SAIB at 96 or 120 hours post-weaning and were bred with a single insemination 28+/−2 hours later with no regard to estrus detection."}, "mature postpartum sows": {"tested_on": "mature postpartum sows", "assay": "Intravulvar injection at estrus detection in mature postpartum sows, AI breeding (Example 2)", "protocol": "Sows were assigned randomly in blocks of two to either control or to be injected intravulvar with 50 mcg of deslorelin in SAIB at the time of estrus detection for sows first detected in estrus in the a.m. and 12 hours later for those first detected in estrus in the p.m. Treated animals were bred AI upon detected estrus and again 24 hours later if still in estrus. Controls received a saline injection on first detected estrus behavior estrus detection and were bred according to the farm's normal procedures."}, "postpartum sows [2]": {"tested_on": "postpartum sows", "assay": "Pregnancy rate after deslorelin treatment in sows, summary of Tables 2-5", "protocol": "as §1, with “Approximately 170 postpartum sows were randomly divided into two equal groups comprised of controls and treated. Following weaning, the controls were detected for estrus and bred following the normal standard operating procedures for the farms on which they resided. The treated sows received a 50 mcg dose of deslorelin in SAIB at 96 hours post-weaning and were bred with a single insemination 28+/−2 hours later with no regard to estrus detection. The sows were examined for pregnancy by ultrasound at 21 days and slaughtered around 28 days post breeding. The entire reproductive tract was removed and corpora lutea and embryos were counted. Postpartum” for “Postpartum”, “detection. […]” for “detection.”"}, "postpartum sows [3]": {"tested_on": "postpartum sows", "assay": "Single timed injection 96 hours post-weaning and single timed insemination without estrus detection in postpartum sows (Example 3)", "details": "50 mcg at 96 hours post-weaning", "protocol": "Approximately 170 postpartum sows were randomly divided into two equal groups comprised of controls and treated. Following weaning, the controls were detected for estrus and bred following the normal standard operating procedures for the farms on which they resided. The treated sows received a 50 mcg dose of deslorelin in SAIB at 96 hours post-weaning and were bred with a single insemination 28+/−2 hours later with no regard to estrus detection. The sows were examined for pregnancy by ultrasound at 21 days and slaughtered around 28 days post breeding. The entire reproductive tract was removed and corpora lutea and embryos were counted."}, "[4]": {"details": "Site 1, Treatment 1: 50 mcg when standing in estrus, AI 4 hours later and again at 24+/-2 hours"}, "[5]": {"details": "Site 1, Treatment 2: 50 mcg in SAIB at 96 or 120 hours post-weaning, single insemination 28+/-2 hours later, no estrus detection"}, "[6]": {"details": "Site 2, Treatment 1: 50 mcg when standing in estrus, AI 4 hours later and again at 24+/-2 hours"}, "[7]": {"details": "Site 2, Treatment 2: 50 mcg in SAIB at 96 or 120 hours post-weaning, single insemination 28+/-2 hours later, no estrus detection"}, "[8]": {"details": "Site 3, Treatment 2: 50 mcg in SAIB at 96 or 120 hours post-weaning, single insemination 28+/-2 hours later, no estrus detection"}, "[9]": {"details": "50 μg intravulvar at first estrus detection, AI, AI again if in estrus next day"}, "[10]": {"details": "slaughtered around 28 days post breeding"}},
  "data": [
    {"smiles": "CCNC(=O)[C@@H]1CCCN1C(=O)[C@H](CCCN=C(N)N)NC(=O)[C@H](CC(C)C)NC(=O)[C@@H](Cc1c[nH]c2ccccc12)NC(=O)[C@H](Cc1ccc(O)cc1)NC(=O)[C@H](CO)NC(=O)[C@H](Cc1c[nH]c2ccccc12)NC(=O)[C@H](Cc1cnc[nH]1)NC(=O)[C@@H]1CCC(=O)N1", "note": "[Deslorelin, deslorelin]", "values": [
      {"measurement": "Avg. Total Live Pigs", "setting": "postpartum sows [1]; [4]", "value": 11.03},
      {"measurement": "Avg. Total Pigs Born", "setting": "postpartum sows [1]; [4]", "value": 12.10},
      {"measurement": "Avg. Total Live Pigs", "setting": "postpartum sows [1]; [5]", "value": 11.24},
      {"measurement": "Avg. Total Pigs Born", "setting": "postpartum sows [1]; [5]", "value": 12.37},
      {"measurement": "Avg. Total Live Pigs", "setting": "postpartum sows [1]; [6]", "value": 10.25},
      {"measurement": "Avg. Total Pigs Born", "setting": "postpartum sows [1]; [6]", "value": 11.21},
      {"measurement": "Avg. Total Live Pigs", "setting": "postpartum sows [1]; [7]", "value": 10.02},
      {"measurement": "Avg. Total Pigs Born", "setting": "postpartum sows [1]; [7]", "value": 10.88},
      {"measurement": "Avg. Total Live Pigs", "setting": "postpartum sows [1]; [8]", "value": 10.27},
      {"measurement": "Avg. Total Pigs Born", "setting": "postpartum sows [1]; [8]", "value": 11.09},
      {"measurement": "litter sizes (in words)", "setting": "postpartum sows [1]; Tables 3-5, regardless of estrus detection", "value": "normal litter sizes"},
      {"measurement": "Length of Estrus", "setting": "mature postpartum sows; [9]", "value": "40.81 (n = 69) Hrs."},
      {"measurement": "Pregnancy Rate", "setting": "mature postpartum sows; [9]", "value": "91% (n = 75)"},
      {"measurement": "pregnancy rates, Control versus Treated groups (in words)", "setting": "mature postpartum sows; 50 mcg intravulvar at estrus detection", "value": "no significant difference"},
      {"measurement": "pregnancy rates (in words)", "setting": "postpartum sows [2]; Table 6", "value": "normal pregnancy rates"},
      {"measurement": "Number Pregnant", "setting": "postpartum sows [2]; Treatment 2 (timed injection, single timed insemination), 250 sows in group, data of Tables 2-5 summarized", "value": 177},
      {"measurement": "% Pregnant", "setting": "postpartum sows [2]; Treatment 2 (timed injection, single timed insemination), data of Tables 2-5 summarized", "value": 70.80, "unit": "%"},
      {"measurement": "Pregnancy Rate", "setting": "postpartum sows [3]; single insemination 28+/-2 hours later, no estrus detection", "value": 71, "unit": "%"},
      {"measurement": "Sows Pregnant", "setting": "postpartum sows [3]; single insemination 28+/-2 hours later, 84 sows in group", "value": 60},
      {"measurement": "Embryo Survival", "setting": "postpartum sows [3]; [10]", "value": 64, "unit": "%"},
      {"measurement": "Live Embryos", "setting": "postpartum sows [3]; [10]", "value": 13.4}
    ]}
  ]
}
